Structures can show the parent of a compound that is named as a salt.
Target: mGluR5 (Homo sapiens, UniProt P41594)
Test: inhibition of the glutamate induced elevation of intracellular Ca2+ concentration
Conditions: for inhibition at 10 µM: read-out: mGluR5 Activity inh. at 10 μM [%]; for mGluR5 Activity inh. at 10 μM [%]: inhibition of glutamate induced elevation of intracellular Ca2+ concentration at 10 μM
Excerpt: This can be determined in vitro for example at recombinant human metabotropic glutamate receptors, especially PLC-coupled subtypes thereof such as mGluR5, using different procedures like, for example, measurement of the inhibition of the agonist induced elevation of intracellular Ca^2+ concentration in accordance with L. P. Daggett et al., Neuropharm.

Sequence of mGluR5 (P41594 21-1180 isoform P41594-2 limits assumed): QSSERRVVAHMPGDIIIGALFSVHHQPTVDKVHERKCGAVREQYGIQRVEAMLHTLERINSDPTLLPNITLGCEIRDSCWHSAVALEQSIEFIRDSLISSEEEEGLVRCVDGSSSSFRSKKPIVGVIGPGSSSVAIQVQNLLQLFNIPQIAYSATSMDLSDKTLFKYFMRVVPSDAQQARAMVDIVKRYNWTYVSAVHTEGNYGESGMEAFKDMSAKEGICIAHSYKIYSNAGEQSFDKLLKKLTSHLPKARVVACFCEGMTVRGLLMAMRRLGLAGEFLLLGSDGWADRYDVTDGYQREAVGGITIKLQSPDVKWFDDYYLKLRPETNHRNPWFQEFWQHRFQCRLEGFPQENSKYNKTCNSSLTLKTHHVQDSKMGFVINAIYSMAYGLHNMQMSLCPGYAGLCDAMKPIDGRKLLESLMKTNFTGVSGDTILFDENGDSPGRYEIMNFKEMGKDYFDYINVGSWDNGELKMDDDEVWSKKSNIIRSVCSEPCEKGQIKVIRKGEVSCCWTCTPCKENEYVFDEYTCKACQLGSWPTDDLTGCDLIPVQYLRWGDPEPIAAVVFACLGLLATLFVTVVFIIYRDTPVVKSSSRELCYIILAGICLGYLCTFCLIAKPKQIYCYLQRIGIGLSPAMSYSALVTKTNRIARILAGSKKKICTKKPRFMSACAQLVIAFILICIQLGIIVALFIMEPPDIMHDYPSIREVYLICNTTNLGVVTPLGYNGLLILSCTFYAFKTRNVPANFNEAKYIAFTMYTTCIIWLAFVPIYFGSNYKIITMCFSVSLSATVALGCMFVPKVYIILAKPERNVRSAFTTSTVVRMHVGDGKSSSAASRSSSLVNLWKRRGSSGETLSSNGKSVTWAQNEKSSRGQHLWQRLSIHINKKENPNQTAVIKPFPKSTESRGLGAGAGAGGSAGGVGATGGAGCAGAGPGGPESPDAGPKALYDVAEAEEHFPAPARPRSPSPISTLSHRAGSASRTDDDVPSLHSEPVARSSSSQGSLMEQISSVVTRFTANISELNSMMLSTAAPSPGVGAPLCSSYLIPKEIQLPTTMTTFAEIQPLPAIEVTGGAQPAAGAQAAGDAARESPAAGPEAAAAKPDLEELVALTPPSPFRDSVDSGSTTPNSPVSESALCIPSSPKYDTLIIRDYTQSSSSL

Compound	inhibition at 10 µM	mGluR5 Activity inh. at 10 μM [%]
CC1CCCN(C(=O)c2ccc(Nc3ccc(Cl)cc3)nc2)C1 (racemic) [Compound 1.12, rac-[6-(4-Chloro-phenylamino)-pyridin-3-yl]-(3-methyl-piperidin-1-yl)-methanone]	93%	–
O=C(c1cnc(Nc2ccc(Cl)cc2)c(Cl)c1)N1CC2CCC1C2 (racemic) [Compound 2.4, rac-(2-Aza-bicyclo[2.2.1]hept-2-yl)-[5-chloro-6-(4-chloro-phenylamino)-pyridin-3-yl]-methanone]	100%	–
COc1ccc(Nc2ncc(C(=O)N3CCCC(C)C3)cc2Cl)cn1 (racemic) [Compound 2.6, rac-[5-Chloro-6-(6-methoxy-pyridin-3-ylamino)-pyridin-3-yl]-(3-methyl-piperidin-1-yl)-methanone]	98%	–
Cc1ccc(Nc2ncc(C(=O)N3CC4CCC3C4)cc2Cl)cn1 (racemic) [Compound 2.13, rac-(2-Aza-bicyclo[2.2.1]hept-2-yl)-[5-chloro-6-(6-methyl-pyridin-3-ylamino)-pyridin-3-yl]-methanone]	96%	–
Cc1ccc(Oc2ncc(C(=O)N3CCCC(C)C3)cc2Cl)cn1 (racemic) [Compound 3.1, rac-[5-Chloro-6-(6-methyl-pyridin-3-yloxy)-pyridin-3-yl]-(3-methyl-piperidin-1-yl)-methanone]	94%	–
O=C(c1ccc(Nc2ccc(Cl)cc2)nc1)N1CCCC(CO)C1 (racemic) [Compound 4.6, rac-[6-(4-Chloro-phenylamino)-pyridin-3-yl]-(3-hydroxymethyl-piperidin-1-yl)-methanone]	86%	–
COC1CCCN(C(=O)c2ccc(Nc3ccc(Cl)cc3)nc2)C1 (racemic) [Compound 4.7, rac-[6-(4-Chloro-phenylamino)-pyridin-3-yl]-(3-methoxy-piperidin-1-yl)-methanone]	87%	–
O=C(c1ccc(Nc2ccc(Cl)cc2)nc1)N1CC2CCC1C2 (racemic) [Compound 4.12, rac-(2-Aza-bicyclo[2.2.1]hept-2-yl)-[6-(4-chloro-phenylamino)-pyridin-3-yl]-methanone]	96%	–
Cc1ccc(Nc2ccc(C(=O)N3CCCC(C)C3)cn2)cn1 (racemic) [Compound 4.13, rac-(3-Methyl-piperidin-1-yl)-[6-(6-methyl-pyridin-3-ylamino)-pyridin-3-yl]-methanone]	97%	–
CC1CCCN(C(=O)c2cnc(Nc3ccc(Cl)cc3)nc2)C1 (racemic) [Compound 5.5, rac-[2-(4-Chloro-phenylamino)-pyrimidin-5-yl]-(3-methyl-piperidin-1-yl)-methanone]	96%	–
CC1CCCN(C(=O)c2ccc(Nc3ccc(Cl)cc3)nn2)C1 (racemic) [Compound 8.2, rac-[6-(4-Chloro-phenylamino)-pyridazin-3-yl]-(3-methyl-piperidin-1-yl)-methanone]	100%	–
Cc1cccc(C#C[C@]2(O)CCC[C@@H]3[C@H]2CCN3C(=O)c2ccc(Nc3ccc(Cl)cc3)nc2)c1 (relative stereo) [Compound 4.14, [6-(4-Chloro-phenylamino)-pyridin-3-yl]-(rel-(3aR,4S,7aR)-4-hydroxy-4-m-tolylethynyl-octahydro-indol-1-yl)-methanone]	86%	–
CCN(CC)C(=O)c1ccc(Nc2ccc(Cl)cc2)nc1 [Compound 1.1, 6-(4-Chloro-phenylamino)-N,N-diethyl-nicotinamide hydrochloride]	95%	–
CCN(CC)C(=O)c1ccc(Nc2ccc(C)cc2)nc1 [Compound 1.2, N,N-Diethyl-6-p-tolylamino-nicotinamide hydrochloride]	93%	–
CCN(CC)C(=O)c1ccc(Nc2ccc(OC)cc2)nc1 [Compound 1.3, N,N-Diethyl-6-(4-methoxy-phenylamino)-nicotinamide hydrochloride]	75%	–
COCCN(CCOC)C(=O)c1ccc(Nc2ccc(Cl)cc2)nc1 [Compound 1.4, 6-(4-Chloro-phenylamino)-N,N-bis-(2-methoxy-ethyl)-nicotinamide hydrochloride]	37%	–
O=C(c1ccc(Nc2ccc(Cl)c(F)c2)nc1)N1CCCCC1 [Compound 1.5, [6-(4-Chloro-3-fluoro-phenylamino)-pyridin-3-yl]-piperidin-1-yl-methanone]	90%	–
O=C(c1ccc(Nc2ccc(Br)cc2)nc1)N1CCCCC1 [Compound 1.6, [6-(4-Bromo-phenylamino)-pyridin-3-yl]-piperidin-1-yl-methanone]	96%	–
N#Cc1ccc(Nc2ccc(C(=O)N3CCCCC3)cn2)cc1 [Compound 1.7, 4-[5-(Piperidine-1-carbonyl)-pyridin-2-ylamino]-benzonitrile]	77%	–
O=C(c1ccc(Nc2ccc(OC(F)(F)F)cc2)nc1)N1CCCCC1 [Compound 1.8, Piperidin-1-yl-[6-(4-trifluoromethoxy-phenylamino)-pyridin-3-yl]-methanone]	54%	–
CC1CCCCN1C(=O)c1ccc(Nc2ccc(Cl)cc2)nc1 (stereo not drawn) [Compound 1.9, [6-(4-Chloro-phenylamino)-pyridin-3-yl]-(2-methyl-piperidin-1-yl)-methanone hydrochloride]	97%	–

Compound	inhibition at 10 µM	mGluR5 Activity inh. at 10 μM [%]
Cc1ccc(Nc2ccc(C(=O)N3CCCCC3C)cn2)cc1 (stereo not drawn) [Compound 1.10, (2-Methyl-piperidin-1-yl)-(6-p-tolylamino-pyridin-3-yl)-methanone]	94%	–
COc1ccc(Nc2ccc(C(=O)N3CCCCC3C)cn2)cc1 (stereo not drawn) [Compound 1.11, [6-(4-Methoxy-phenylamino)-pyridin-3-yl]-(2-methyl-piperidin-1-yl)-methanone hydrochloride]	71%	–
C[C@H]1CCCN(C(=O)c2ccc(Nc3ccc(Cl)cc3)nc2)C1 [Compound 1.12a, [6-(4-Chloro-phenylamino)-pyridin-3-yl]-(S-3-methyl-piperidin-1-yl)-methanone]	–	99%
C[C@@H]1CCCN(C(=O)c2ccc(Nc3ccc(Cl)cc3)nc2)C1 [Compound 1.12b, [6-(4-Chloro-phenylamino)-pyridin-3-yl]-(R-3-methyl-piperidin-1-yl)-methanone]	100%	–
Cc1ccc(Nc2ccc(C(=O)N3CCCC(C)C3)cn2)cc1 (stereo not drawn) [Compound 1.13]	–	96%
COc1ccc(Nc2ccc(C(=O)N3CCCC(C)C3)cn2)cc1 (stereo not drawn) [Compound 1.14, [6-(4-Methoxy-phenylamino)-pyridin-3-yl]-(3-methyl-piperidin-1-yl)-methanone hydrochloride]	94%	–
CC1CCCN(C(=O)c2ccc(Nc3ccccc3)nc2)C1 (stereo not drawn) [Compound 1.15, (3-Methyl-piperidin-1-yl)-(6-phenylamino-pyridin-3-yl)-methanone hydrochloride]	88%	–
CC1CCCN(C(=O)c2ccc(Nc3cccc(Cl)c3)nc2)C1 (stereo not drawn) [Compound 1.16, [6-(3-Chloro-phenylamino)-pyridin-3-yl]-(3-methyl-piperidin-1-yl)-methanone hydrochloride]	54%	–
O=C(c1ccc(Nc2ccc(Cl)cc2)nc1)N1CCOCC1 [Compound 1.17, [6-(4-Chloro-phenylamino)-pyridin-3-yl]-morpholin-4-yl-methanone hydrochloride]	83%	–
COc1ccc(Nc2ccc(C(=O)N3CCOCC3)cn2)cc1 [Compound 1.18, [6-(4-Methoxy-phenylamino)-pyridin-3-yl]-morpholin-4-yl-methanone hydrochloride]	32%	–
C[C@@H]1CN(C(=O)c2ccc(Nc3ccc(Cl)cc3)nc2)C[C@H](C)O1 [Compound 1.19, cis-[6-(4-Chloro-phenylamino)-pyridin-3-yl]-(2,6-dimethyl-morpholin-4-yl)-methanone hydrochloride]	94%	–
Cc1ccc(Nc2ccc(C(=O)N3C[C@@H](C)O[C@@H](C)C3)cn2)cc1 [Compound 1.20, (cis-2,6-Dimethyl-morpholin-4-yl)-(6-p-tolylamino-pyridin-3-yl)-methanone hydrochloride]	95%	–
COc1ccc(Nc2ccc(C(=O)N3C[C@@H](C)O[C@@H](C)C3)cn2)cc1.Cl [Compound 1.21, (cis-Z 6-Dimethyl-morpholin-4-yl)-[6-(4-methoxy-phenylamino)-pyridin-3-yl]-methanone hydrochloride]	–	57%
O=C(c1ccc(Nc2ccc(Cl)cn2)nc1)N1CCCCC1 [Compound 2.1, [6-(5-Chloro-pyridin-2-ylamino)-pyridin-3-yl]-piperidin-1-yl-methanone]	60%	–
O=C(c1ccc(Nc2cccnc2)nc1)N1CCCCCC1 [Compound 2.2, Azepan-1-yl-[6-(pyridin-3-ylamino)-pyridin-3-yl]-methanone]	46%	–
O=C(c1ccc(Nc2ccc(F)c(F)c2)nc1)N1CCCCC1 [Compound 2.3, [6-(3,4-Difluoro-phenylamino)-pyridin-3-yl]-piperidin-1-yl-methanone]	65%	–
O=C(c1cnc(Nc2ccc(Cl)cc2)c(Cl)c1)N1CCSCC1 [Compound 2.5, [5-Chloro-6-(4-chloro-phenylamino)-pyridin-3-yl]-thiomorpholin-4-yl-methanone]	97%	–
COc1ccc(Nc2ncc(C(=O)N3CCCCCC3)cc2Cl)cn1 [Compound 2.7, Azepan-1-yl-[5-chloro-6-(6-methoxy-pyridin-3-ylamino)-pyridin-3-yl]-methanone]	98%	–
COc1ccc(Nc2ncc(C(=O)N3CCCCC3)cc2Cl)cn1 [Compound 2.8, [5-Chloro-6-(6-methoxy-pyridin-3-ylamino)-pyridin-3-yl]-piperidin-1-yl-methanone]	96%	–
CCOc1ccc(Nc2ncc(C(=O)N3CCCCC3)cc2Cl)cn1 [Compound 2.9, [5-Chloro-6-(6-ethoxy-pyridin-3-ylamino)-pyridin-3-yl]-piperidin-1-yl-methanone]	100%	–
Cc1ccc(Nc2ncc(C(=O)N3CCSC3)cc2Cl)cn1 [Compound 2.14, [5-Chloro-6-(6-methyl-pyridin-3-ylamino)-pyridin-3-yl]-thiazolidin-3-yl-methanone]	97%	–
